Tests used:
Type in all cases: in vivo
[1] = system: cocklebur (Xanthium strumarium, XANST); test: Greenhouse herbicide screen, pre-emerge application, phytotoxicity rating; details: PRE emergent, 14 days after application, rating scale 0-100
How it was run: (§1)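 Rating: 0–100 scale, 14 DAA; 100 = complete plant death. Spray: acetone, 187 l/ha, 15–1000 g ai/ha, track sprayer. Timing: pre-emerge 1 d after sowing; post-emerge at 2–3 leaves.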

[2] = system: large crabgrass (Digitaria sanguinalis, DIGSA); test: as above; details: PRE emergent, 14 days after application, rating scale 0-100
How it was run: as §1

[3] = system: johnsongrass (Sorghum halepense, SORHA); test: as above; details: PRE emergent, 14 days after application, rating scale 0-100
How it was run: as §1

[4] = system: redroot pigweed (Amaranthus retrofiexus, AMARE); test: as above; details: PRE emergent, 14 days after application, rating scale 0-100
How it was run: as §1

[5] = system: velvetleaf (Abutilon theophrasti, ABUTH); test: as above; details: PRE emergent, 14 days after application, rating scale 0-100
How it was run: as §1

[6] = system: green foxtail (Setaria viridis, SETVI); test: as above; details: PRE emergent, 14 days after application, rating scale 0-100
How it was run: as §1

[7] = system: sicklepod (Cassia obtusifolia, CASOB); test: as above; details: PRE emergent, 14 days after application, rating scale 0-100
How it was run: as §1

[8] = system: common ragweed (Ambrosia artemisiifolia L., AMBEL); test: as above; details: PRE emergent, 14 days after application, rating scale 0-100
How it was run: as §1

[9] = system: barnyardgrass (Echinochloa crus-galli, ECHCG); test: as above; details: PRE emergent, 14 days after application, rating scale 0-100
How it was run: as §1

[10] = system: ivyleaf morningglory (Ipomoea hederacea, IPOHE); test: as above; details: PRE emergent, 14 days after application, rating scale 0-100
How it was run: as §1

[11] = system: lambsquarters (Chenopodium album, CHEAL); test: as above; details: PRE emergent, 14 days after application, rating scale 0-100
How it was run: as §1

[12] = system: field corn (Zea mays L., var. Dekalb 535, CORN); test: Greenhouse herbicide screen, post-emerge application, crop damage rating; details: POST emergent, 14 days after application, scale 0-100
Source text: (§2) A standard greenhouse herbicide activity screening system was used to evaluate the herbicidal efficacy and crop safety of these test compounds. Seven broadleaf weed species including redroot pigweed (Amaranthus retrofiexus, AMARE), velvetleaf (Abutilon theophrasti, ABUTH), sicklepod (Cassia obtusifolia, CASOB), ivyleaf morningglory (Ipomoea hederacea, IPOHE), lambsquarters (Chenopodium album, CHEAL), common ragweed (Ambrosia artemisiifolia L., AMBEL), and cocklebur (Xanthium strumarium, XANST) were used as test species. Four grass weed species including green foxtail (Setaria viridis, SETVI), barnyardgrass (Echinochloa crus-galli, ECHCG), johnsongrass (Sorghum halepense, SORHA), and large crabgrass (Digitaria sanguinalis, DIGSA) were also used. In addition, four crop species, field corn (Zea mays L., var. Dekalb 535, CORN), soybean (Glycine max L., var. Pella 86, SOY), upland rice (Oryza sp., var.Cocodrie, RICE) and wheat (Triticum aestivum L.) were included.
(§3) All plants were grown in 10 cm square plastic pots which were filled with a sandy loam soil mix. For pre-emerge tests, seeds were planted one day prior to application of the test compounds. For post-emerge tests, seeds were planted 8-21 days prior to the test to allow emergence and good foliage development prior to application of the test substances. At the time of the post-emerge application, plants of all species were usually at the 2-3 leaf stage of development.
(§4) All test compounds were dissolved in acetone and applied to the test units in a volume of 187 l/ha. Test materials were applied at rates ranging from 15 g ai/ha to 1000 g ai/ha using a track sprayer equipped with a TJ8001E even flow flat fan spray nozzle. Plants were arranged on a shelf so that the top of the canopy (post-emerge) or top of the soil surface (pre-emerge) was 40-45 cm below the nozzle. Pressurized air was used to force the test solution through the nozzle as it was mechanically advanced (via electrically driven chain drive) over the top of all test plants/pots. This application simulates a typical commercial field herbicide application.
(§5) Pre-emergence tests were top watered immediately after treatment to incorporate the test materials, then routinely top-watered for normal growth. Post-emerge test units were always bottom-watered.
(§6) At 14 days after application of the test materials, phytotoxicity ratings were recorded. A rating scale of 0-100 was used as previously described in Research Methods in Weed Science, 2nd edition, B. Truelove, Ed., Southern Weed Science Society, Auburn University, Auburn, Ala., 1977. Briefly, “0” corresponds to no damage and “100” corresponds to complete death of all plants in the test unit. This scale was used both to determine efficacy against weed species and damage to crop species. Herbicide activity data for various compounds of this invention, which are shown by compound No. in Tables 1-12, are shown in Tables 13 and 14.

[13] = system: upland rice (Oryza sp., var.Cocodrie, RICE); test: as above; details: POST emergent, 14 days after application, scale 0-100
Source text: as §2, §3, §4, §5, §6

[14] = system: cocklebur (Xanthium strumarium, XANST); test: Greenhouse herbicide screen, post-emerge application, phytotoxicity rating; details: POST emergent, 14 days after application, scale 0-100
How it was run: as §1

[15] = system: large crabgrass (Digitaria sanguinalis, DIGSA); test: as above; details: POST emergent, 14 days after application, scale 0-100
How it was run: as §1

[16] = system: johnsongrass (Sorghum halepense, SORHA); test: as above; details: POST emergent, 14 days after application, scale 0-100
How it was run: as §1

[17] = system: redroot pigweed (Amaranthus retrofiexus, AMARE); test: as above; details: POST emergent, 14 days after application
How it was run: as §1

[18] = system: velvetleaf (Abutilon theophrasti, ABUTH); test: as above; details: POST emergent, 14 days after application, scale 0-100
How it was run: as §1

[19] = system: green foxtail (Setaria viridis, SETVI); test: as above; details: POST emergent, 14 days after application, scale 0-100
How it was run: as §1

[20] = system: sicklepod (Cassia obtusifolia, CASOB); test: as above; details: POST emergent, 14 days after application, scale 0-100
How it was run: as §1

[21] = system: common ragweed (Ambrosia artemisiifolia L., AMBEL); test: as above; details: POST emergent, 14 days after application, scale 0-100
How it was run: as §1

[22] = system: barnyardgrass (Echinochloa crus-galli, ECHCG); test: as above; details: POST emergent, 14 days after application, scale 0-100
How it was run: as §1

[23] = system: ivyleaf morningglory (Ipomoea hederacea, IPOHE); test: as above; details: POST emergent, 14 days after application, scale 0-100
How it was run: as §1

[24] = system: lambsquarters (Chenopodium album, CHEAL); test: as above; details: POST emergent, 14 days after application, scale 0-100
How it was run: as §1

[25] = system: field corn (Zea mays L., var. Dekalb 535, CORN); test: Greenhouse herbicide screen, pre-emerge application, crop damage rating; details: PRE emergent, 14 days after application, rating scale 0-100
Source text: as §2, §3, §4, §5, §6

[26] = system: upland rice (Oryza sp., var.Cocodrie, RICE); test: as above; details: PRE emergent, 14 days after application, rating scale 0-100
Source text: as §2, §3, §4, §5, §6

Q: How did the “phytotoxicity rating XANST” value ([1]; 63 g ai/ha) turn out when Cn1c(C(F)(F)F)cc(=O)n(-c2cc(C(=O)NN3CCCC3)c(Cl)cc2F)c1=O [Compound 1-11] was run?
A: Its value is 0.

Q: What about the “phytotoxicity rating XANST” value ([1]; 250 g ai/ha) of the same compound?
A: Its value is 40.

Q: And the “phytotoxicity rating DIGSA” value ([2]; 63 g ai/ha)?
A: Its value is 50.

Q: And the “phytotoxicity rating DIGSA” value ([2]; 250 g ai/ha)?
A: Its value is 100.

Q: And the “phytotoxicity rating SORHA” value ([3]; 63 g ai/ha)?
A: Its value is 35.

Q: And the “phytotoxicity rating SORHA” value ([3]; 250 g ai/ha)?
A: The value was 99.

Q: What about the “phytotoxicity rating AMARE” value ([4]; 63 g ai/ha) of the same compound?
A: Its value is 100.

Q: And the “phytotoxicity rating AMARE” value ([4]; 250 g ai/ha)?
A: The value was 100.

Q: And the “phytotoxicity rating ABUTH” value ([5]; 63 g ai/ha)?
A: The value was 100.

Q: And the “phytotoxicity rating ABUTH” value ([5]; 250 g ai/ha)?
A: Its value is 100.

Q: And the “phytotoxicity rating SETVI” value ([6]; 63 g ai/ha)?
A: Its value is 50.

Q: What about the “phytotoxicity rating SETVI” value ([6]; 250 g ai/ha) of the same compound?
A: The value was 100.

Q: And the “phytotoxicity rating CASOB” value ([7]; 63 g ai/ha)?
A: The value was 70.

Q: And the “phytotoxicity rating CASOB” value ([7]; 250 g ai/ha)?
A: The value was 99.

Q: And the “phytotoxicity rating AMBEL” value ([8]; 63 g ai/ha)?
A: Its value is 60.

Q: What about the “phytotoxicity rating AMBEL” value ([8]; 250 g ai/ha) of the same compound?
A: The value was 98.

Q: What about the “phytotoxicity rating ECHCG” value ([9]; 63 g ai/ha) of the same compound?
A: The value was 15.

Q: What about the “phytotoxicity rating ECHCG” value ([9]; 250 g ai/ha) of the same compound?
A: The value was 99.

Q: And the “phytotoxicity rating IPOHE” value ([10]; 63 g ai/ha)?
A: The value was 70.

Q: And the “phytotoxicity rating IPOHE” value ([10]; 250 g ai/ha)?
A: Its value is 100.

Q: What about the “phytotoxicity rating CHEAL” value ([11]; 63 g ai/ha) of the same compound?
A: Its value is 100.

Q: What about the “phytotoxicity rating CHEAL” value ([11]; 250 g ai/ha) of the same compound?
A: The value was 100.

Q: What about the “crop damage rating CORN” value ([12]; 63 g ai/ha) of the same compound?
A: The value was 35.

Q: And the “crop damage rating CORN” value ([12]; 250 g ai/ha)?
A: Its value is 95.

Q: What about the “crop damage rating RICE” value ([13]; 63 g ai/ha) of the same compound?
A: The value was 65.

Q: And the “crop damage rating RICE” value ([13]; 250 g ai/ha)?
A: The value was 65.

Q: And the “phytotoxicity rating XANST” value ([14]; 63 g ai/ha)?
A: Its value is 75.

Q: What about the “phytotoxicity rating XANST” value ([14]; 250 g ai/ha) of the same compound?
A: Its value is 100.

Q: And the “phytotoxicity rating DIGSA” value ([15]; 63 g ai/ha)?
A: Its value is 40.

Q: What about the “phytotoxicity rating DIGSA” value ([15]; 250 g ai/ha) of the same compound?
A: The value was 55.

Q: What about the “phytotoxicity rating SORHA” value ([16]; 63 g ai/ha) of the same compound?
A: Its value is 70.

Q: And the “phytotoxicity rating SORHA” value ([16]; 250 g ai/ha)?
A: Its value is 80.

Q: And the “phytotoxicity rating AMARE” value ([17]; 63 g ai/ha, scale 0-100 (0 no damage, 100 complete death))?
A: The value was 100.

Q: And the “phytotoxicity rating AMARE” value ([17]; 250 g ai/ha, scale 0-100)?
A: Its value is 100.

Q: What about the “phytotoxicity rating ABUTH” value ([18]; 63 g ai/ha) of the same compound?
A: Its value is 100.

Q: What about the “phytotoxicity rating ABUTH” value ([18]; 250 g ai/ha) of the same compound?
A: The value was 100.

Q: What about the “phytotoxicity rating SETVI” value ([19]; 63 g ai/ha) of the same compound?
A: The value was 50.

Q: What about the “phytotoxicity rating SETVI” value ([19]; 250 g ai/ha) of the same compound?
A: The value was 55.

Q: And the “phytotoxicity rating CASOB” value ([20]; 63 g ai/ha)?
A: The value was 15.

Q: And the “phytotoxicity rating CASOB” value ([20]; 250 g ai/ha)?
A: The value was 80.

Q: What about the “phytotoxicity rating AMBEL” value ([21]; 63 g ai/ha) of the same compound?
A: Its value is 99.

Q: And the “phytotoxicity rating AMBEL” value ([21]; 250 g ai/ha)?
A: Its value is 100.

Q: What about the “phytotoxicity rating ECHCO” value ([22]; 63 g ai/ha) of the same compound?
A: Its value is 70.

Q: What about the “phytotoxicity rating ECHCO” value ([22]; 250 g ai/ha) of the same compound?
A: The value was 100.

Q: And the “phytotoxicity rating IPOHE” value ([23]; 63 g ai/ha)?
A: The value was 100.

Q: What about the “phytotoxicity rating IPOHE” value ([23]; 250 g ai/ha) of the same compound?
A: Its value is 100.

Q: What about the “phytotoxicity rating CHEAL” value ([24]; 63 g ai/ha) of the same compound?
A: Its value is 90.

Q: What about the “phytotoxicity rating CHEAL” value ([24]; 250 g ai/ha) of the same compound?
A: Its value is 100.

Q: And the “crop damage rating CORN” value ([25]; 63 g ai/ha)?
A: Its value is 0.

Q: And the “crop damage rating CORN” value ([25]; 250 g ai/ha)?
A: Its value is 50.

Q: What about the “crop damage rating RICE” value ([26]; 63 g ai/ha) of the same compound?
A: Its value is 5.

Q: What about the “crop damage rating RICE” value ([26]; 250 g ai/ha) of the same compound?
A: Its value is 55.
